Data as given in PMC6941357, “An in vitro toolbox to accelerate anti-malarial drug discovery and development” (Malaria Journal, 2020).
Where “and” joins values, the source holds several entries; their conditions need not be identical. Equal values may be shown once. Read-outs that look alike come from different tables or passages of the source. Marks after values point to notes of the source that are not given here.

Assays:
[1] = Solubility in biorelevant media; conditions: for solubility at 1 h / solubility: thermodynamic from solid
How it was run: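 LC–MS quantification of supernatants, after two centrifugations, in triplicate against calibration standards. Media: FaSSGF sampled at 1 h; FaSSIF-V2, FeSSIF-V2 and pH 7.4 PBS sampled at 5–6 h; all at 37 °C on an orbital mixer at 600 rpm.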

[2] = biological target: T1, Albumax medium (lipid rich bovine serum albumin) (Bos taurus, UniProt P02769); assay: Binding in Albumax medium via ultracentrifugation; assay type: in vitro ADME; conditions: for fraction unbound at […], 500 ng/mL: bovine
T1 construct: purchased Gibco, Thermo Fisher Scientific
How it was run: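 Unbound fraction (fu) taken as protein-free supernate concentration over total concentration after ultracentrifuging compound-spiked Albumax at 37 °C (5% or 10% CO2, or air). Analysis used 1:1 mixing with the opposite blank matrix against a common pH 7.4 calibration; degradation judged by start versus end Ctotal.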

[3] = Bidirectional permeability across Caco-2 cell monolayers; conditions: human
How it was run: (§1)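 Donor and acceptor concentrations measured by LC–MS to give Papp, mass balance and efflux ratio (mean B–A over A–B Papp). Media were pH 7.4 HEPES-buffered HBSS or human plasma on both sides; for plasma, Papp used the donor fraction unbound. Donor contained 0.1% v/v DMSO.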

[4] = Octanol/pH 7.4 buffer partition coefficient, shake flask; conditions: pH 7.4
How it was run: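 Both phases were measured by LC-MS, the aqueous phase after re-centrifugation, and the partition coefficient was taken as the octanol-to-buffer concentration ratio over two sampling times. Equal volumes of octanol, holding compound at two dilutions of a 3-30 mg/mL stock, and pH 7.4 phosphate/NaCl buffer were mixed at 37 °C.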

human plasma = conditions: methods UF, ED, EP or not described per compound, ref [6]–[22] of Additional file 1; cited from earlier work
Caco-2 cell monolayers = assay: Bidirectional permeability across Caco-2 cell monolayers; conditions: matrix: pH 7.4 buffer
How it was run: as §1

human liver microsomes = assay: in vitro
How it was run: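 Intrinsic clearance (µL/min/mg protein) came from the first-order substrate-depletion rate in human liver microsomes, using only the initial log-linear phase where kinetics deviated. Samples were quenched at 2, 5, 15, 30 and 60 min and quantified by LC–MS. Unbound CLint was obtained by dividing by microsomal fu.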

[5] = FaSSGF, 37 °C, fassgf or other biorelevant
[6] = phosphate buffered saline pH 7.4, 37 °C, pH 7.4, aqueous buffer
[7] = Caco-2, A–B Papp, matrix: human plasma, corrected for fu
[8] = FaSSGF, FaSSIF-V2, FeSSIF-V2 and PBS pH 7.4, 37 °C, pH 7.4, aqueous buffer
[9] = Caco-2, pH 7.4, A–B Papp, matrix: pH 7.4 buffer
[10] = octanol/pH 7.4 phosphate buffered saline

T1 sequence (P02769 25-607): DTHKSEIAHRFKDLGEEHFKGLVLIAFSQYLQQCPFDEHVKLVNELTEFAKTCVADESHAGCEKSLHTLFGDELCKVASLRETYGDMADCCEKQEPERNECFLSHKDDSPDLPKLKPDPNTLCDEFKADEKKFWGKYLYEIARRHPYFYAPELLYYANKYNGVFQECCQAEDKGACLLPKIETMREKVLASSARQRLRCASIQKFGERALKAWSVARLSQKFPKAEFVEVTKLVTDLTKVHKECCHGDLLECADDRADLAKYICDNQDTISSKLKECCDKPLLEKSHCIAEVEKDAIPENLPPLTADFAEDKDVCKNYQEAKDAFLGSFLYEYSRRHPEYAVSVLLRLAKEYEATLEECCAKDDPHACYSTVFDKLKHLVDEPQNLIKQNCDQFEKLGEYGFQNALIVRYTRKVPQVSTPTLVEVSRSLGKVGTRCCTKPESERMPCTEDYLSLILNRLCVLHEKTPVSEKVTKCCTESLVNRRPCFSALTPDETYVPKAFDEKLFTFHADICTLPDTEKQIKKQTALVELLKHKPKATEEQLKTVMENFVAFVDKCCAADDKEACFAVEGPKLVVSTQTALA

| Compound | solubility at 1 h [1, 5] | solubility ([1]; FaSSIF-V2, 37 °C, fassif) | solubility ([1]; FeSSIF-V2, 37 °C, fessif) | solubility [1, 6] | fraction unbound at […], 500 ng/mL ([2]; isolated protein, pH 7.4) | logD ([4]; octanol/pH 7.4 buffer) | Literature fu (human plasma) | Papp B→A ([3]; Caco-2, pH 7.4) [nm/s] | Papp A→B [3, 9] [nm/s] | A–B Papp (Caco-2 cell monolayers) | further results |
| --- | --- | --- | --- | --- | --- | --- | --- | --- | --- | --- | --- |
| COc1ccc2nc3cc(Cl)ccc3c(Nc3cc(CN4CCCC4)c(O)c(CN4CCCC4)c3)c2n1 [Pyronaridine] | > 2000 µg/mL and > 3800 µM | > 2000 µg/mL and > 3860 µM | > 2000 µg/mL and > 3800 µM | 357 µg/mL and 689 µM | 0.69 ± 0.023 | 0.23 | < 0.35 |  |  |  | Papp B→A ([3]; Caco-2): 410 ± 30 nm/s; efflux ratio ([3]; Caco-2): 2.6; Papp A→B [3, 7]: 160 ± 22 nm/s |
| [H]/N=C(\N/C(=N/[H])Nc1ccc(Cl)cc1)NC(C)C [Proguanil] | > 2000 µg/mL and > 7880 µM | > 2000 µg/mL and > 7880 µM | > 2000 µg/mL and > 7880 µM | > 2000 µg/mL and > 7880 µM | 0.8 ± 0.021 | 0.27 | 0.25 | 79 ± 5.1 | < 50 | 3.5 ± 0.75 10^−6 cm/s | solubility [1, 8]: > 2 mg/mL |
| COc1cc(C)c2c(Oc3cccc(C(F)(F)F)c3)c(OC)cc(NC(C)CCCN)c2n1 (stereo not shown) [Tafenoquine] | > 2000 µg/mL and > 2800 µM | 15.8 µg/mL and 34.1 µM | 1310 µg/mL and 2820 µM | 18.3 µg/mL and 39.5 µM |  | 4.24 | < 0.005 |  |  |  | FaSSGF solubility ([1]; FaSSGF): > 2 mg/mL; Papp A→B [3, 7]: > 3000 nm/s; logD [4, 10]: 4.24 |
| CO[C@H]1O[C@@H]2O[C@@]3(C)CC[C@H]4[C@H](C)CC[C@@H]([C@H]1C)[C@@]24OO3 [Artemether] | 95 µg/mL and 320 µM | 166 µg/mL and 556 µM | 1040 µg/mL and 3480 µM | 109 µg/mL and 365 µM | 0.46 ± 0.039 | 3.7 | 0.046 | 420 ± 56 | 391 | 46.3 10^−6 cm/s |  |
| CCc1nc(N)nc(N)c1-c1ccc(Cl)cc1 [Pyrimethamine] | > 2000 µg/mL and > 8000 µM | 111 µg/mL and 446 µM | 120 µg/mL and 483 µM | 43 µg/mL and 175 µM | 0.46 ± 0.09 | 2.41 | 0.088 | 590 ± 29 |  |  | Papp A→B ([3]; Caco-2, pH 7.4): 600 ± 56 nm/s |
| C[C@H]1[C@@H](O)O[C@@H]2O[C@@]3(C)CC[C@H]4[C@H](C)CC[C@@H]1[C@@]24OO3 [Dihydroartemisinin] | 140 µg/mL and 492 µM |  |  |  |  | 2.3 | 0.092 | 490 ± 12 | 500 ± 23 |  | fraction unbound at […], 500 ng/mL ([2]; isolated protein, pH 7.4, instability evident, estimate only): 0.34 ± 0.018; logD [4, 10]: 2.3 |
| OC(c1cc(C(F)(F)F)nc2c(C(F)(F)F)cccc12)C1CCCCN1 (stereo not shown) [Mefloquine] | 740 µg/mL and 1960 µM | 584 µg/mL and 1540 µM | > 2000 µg/mL and > 5200 µM | 290 µg/mL and 767 µM |  | 2.7 | 0.02 |  |  |  | fraction unbound at […], 500 ng/mL ([2]; Albumax medium, pH 7.4): 0.27 ± 0.019; Unbound CLint (human liver microsomes; human, 1 µM, pH 7.4): < 140^c µL/min/mg |
| CCNCc1cc(Nc2ccnc3cc(Cl)ccc23)ccc1O [Desethylamodiaquine] |  |  |  |  | 0.75 ± 0.074 | 1.3 | 0.18 |  |  |  |  |
| CC[C@H]1OC(=O)[C@H](C)[C@@H](O[C@H]2C[C@@](C)(OC)[C@@H](O)[C@H](C)O2)[C@H](C)[C@@H](O[C@@H]2O[C@H](C)C[C@H](N(C)C)[C@H]2O)[C@](C)(O)C[C@@H](C)CN(C)[C@H](C)[C@@H](O)[C@]1(C)O [Azithromycin] | 1180 µg/mL and 1570 µM | 1440 µg/mL and 1930 µM | > 2000 µg/mL and > 2670 µM | > 2000 µg/mL and > 2670 µM | 0.76 ± 0.065 | 1.1 | 0.5-0.88 | 130 ± 39 |  | 0.37 10^−6 cm/s and 0.38 10^−6 cm/s | A–B Papp (Caco-2 cell monolayers; listed as azithromycin): < 5 10^−6 cm/s |
| COc1cc(NC(C)CCCN)c2ncccc2c1 (stereo not shown) [Primaquine] |  |  |  |  | 0.96 ± 0.056 |  | 0.35-0.55 | 340 ± 15 |  |  | FaSSGF solubility [1]: > 2 mg/mL; FaSSIF solubility [1]: > 2 mg/mL; FeSSIF solubility [1]: > 2 mg/mL; solubility ([1]; 37 °C, fassgf or other biorelevant): > 2000 µg/mL and > 7700 µM; solubility ([1]; 37 °C, fassif): > 2000 µg/mL and > 7700 µM; solubility ([1]; 37 °C, fessif): > 2000 µg/mL and > 7700 µM; solubility ([1]; 37 °C, pH 7.4, aqueous buffer): > 7.7 mM; Solubility PBS7.4 (5–6 h) ([1]; pH 7.4): > 2000/> 7700 µg/mL; Papp A→B ([3]; Caco-2, pH 7.4): 290 ± 45 nm/s; Log D7.4 [4]: 0.54; logD [4]: 0.54 |
| O=C1C(O)=C([C@H]2CC[C@H](c3ccc(Cl)cc3)CC2)C(=O)c2ccccc21 [Atovaquone] | 0.26 µg/mL and 0.71 µM | 1.83 µg/mL and 4.99 µM | 6.41 µg/mL and 17.5 µM | < 0.05 µg/mL and < 0.1 µM |  | 5.3 | 0.001 |  |  |  |  |
| C[C@H]1c2cccc(O)c2C(=O)C2=C(O)[C@]3(O)C(=O)C(C(N)=O)=C(O)[C@@H](N(C)C)[C@@H]3[C@@H](O)[C@@H]21 [Doxycyclin] | > 2000 µg/mL and > 4500 µM | > 2000 µg/mL and > 4500 µM | > 2000 µg/mL and > 4500 µM | > 2000 µg/mL and > 4500 µM | 0.41 ± 0.023 |  | 0.12 | 42 ± 2.9 | < 50 | 3.4 ± 0.23 10^−6 cm/s | solubility [1, 8]: > 2 mg/mL |
| O=C(NCCN1CCCC1)c1cc(-c2ccc(CN3CCOCC3)cc2)nc2ccc(F)cc12 [M5717] |  |  |  |  |  |  | 0.23 |  |  | 34 ± 2.6 10^−6 cm/s | solubility in all media tested ([1]; FaSSGF, FaSSIF-V2, FeSSIF-V2, PBS pH 7.4): > 2 mg/mL; Fraction unbound, Albumax [2]: 0.55 ± 0.041; Unbound CLint (human liver microsomes): 22.2 µL/min/mg; HLM CLint (human liver microsomes; human, microsomes): 11.1 µL/min/mg; B–A Papp (Caco-2 cell monolayers): 39 ± 7.6 10^−6 cm/s; efflux ratio (Caco-2 cell monolayers; mean B–A/A–B Papp): 1.1 |
